Source: patent US5218115A, “Cholecystokinin antagonists” (Merck & Co., Inc., priority 1992, dated 1993)
“Also recorded” adds a separate entry of the source. Where two headings read alike, the source gives them in different places. Square brackets hold non-standard residues; d marks the D form. Peptide text beside a SMILES is read from it. * marks the point of attachment. sY = N[C@@H](Cc1ccc(OS(=O)(=O)O)cc1)C(=O)O; Cbz = O=C(OCc1ccccc1)*; Boc = CC(C)(C)OC(=O)*

Tests used:
CCK receptor = details: in words; cited from earlier work
CCK receptor (pancreas) = target: T1, CCK receptor (pancreas) (Rattus norvegicus, UniProt P30551); assay: CCK Receptor Binding (Pancreas), inhibition of 125I-CCK-8 binding; parameters: species or system Male Sprague-Dawley rats; details: 125I-CCK-8 50 pM, 25° C., 2 hours
T1 construct: The whole pancreas was dissected free of fat tissue and was homogenized; from tissue; host or cells: rat pancreas membranes (male Sprague-Dawley)
T1 sequence (P30551 1-444): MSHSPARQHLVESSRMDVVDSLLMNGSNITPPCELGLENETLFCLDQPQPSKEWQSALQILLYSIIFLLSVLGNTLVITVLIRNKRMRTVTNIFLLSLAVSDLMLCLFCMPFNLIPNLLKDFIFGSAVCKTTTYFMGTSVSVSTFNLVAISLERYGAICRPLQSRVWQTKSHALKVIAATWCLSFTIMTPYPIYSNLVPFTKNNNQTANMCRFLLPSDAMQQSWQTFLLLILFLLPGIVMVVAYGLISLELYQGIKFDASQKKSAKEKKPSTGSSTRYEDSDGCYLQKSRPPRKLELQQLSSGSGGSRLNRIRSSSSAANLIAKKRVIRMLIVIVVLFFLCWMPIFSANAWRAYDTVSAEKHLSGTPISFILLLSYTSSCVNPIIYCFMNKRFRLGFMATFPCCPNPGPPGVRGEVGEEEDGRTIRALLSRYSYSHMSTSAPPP
Experimental: CCK-8 sulphated was radiolabelled with ^125 I-Bolton Hunter reagent (2000 Ci/mmole). Receptor binding was performed according to Chang and Lotti (Proc. Natl. Acad. Sci. 83, 4923-4926, 1986) with minor modifications.
Male Sprague-Dawley rats (150-200 g) were sacrificed by decapitation. The whole pancreas was dissected free of fat tissue and was homogenized in 25 volumes of ice-cold 10 mM Hepes buffer with 0.1% soya bean trypsin inhibitor (pH 7.4 at 25° C.) with a Kinematica Polytron. The homogenates were centrifuged at 47,800 g for 10 min. Pellets were resuspended in 10 volumes of binding assay buffer (20 mM Hepes, 1 mM EGTA, 5 mM MgCl2, 150 mM NaCl, bacitracin 0.25 mg/ml, soya bean trypsin inhibitor 0.1 mg/ml, and bovine serum albumin 2 mg/ml, pH 6.5 at 25° C.) using a teflon homogenizer, 15 strokes at 500 rpm. The homogenate was further diluted in binding assay buffer to give a final concentration of 0.5 mg original wet weight/1 ml buffer. […] All assays were run in duplicate. […] The radioactivity on the filters was counted with a LKB gamma counter.
(§1) Drug displacement studies were performed with at least 10 concentrations of compounds of formula 1 and the IC50 values were determined by regression analysis.

[1] = target: T2, Gastrin receptor (gastric glands) (Cavia porcellus, UniProt H0VZC5); assay: Gastrin Receptor Binding in Guinea Pig Gastric Glands, 125I-gastrin; parameters: species or system guinea pigs, male Hartley; details: 125I-gastrin 0.1 nM, 25° C., 30 minutes, read-out: CCK RECEPTOR BINDING RESULTS IC50, 125I-Gastrin Gastric Glands
T2 construct: from tissue; host or cells: guinea pig gastric mucosal glands (male Hartley)
T2 sequence (H0VZC5 1-426): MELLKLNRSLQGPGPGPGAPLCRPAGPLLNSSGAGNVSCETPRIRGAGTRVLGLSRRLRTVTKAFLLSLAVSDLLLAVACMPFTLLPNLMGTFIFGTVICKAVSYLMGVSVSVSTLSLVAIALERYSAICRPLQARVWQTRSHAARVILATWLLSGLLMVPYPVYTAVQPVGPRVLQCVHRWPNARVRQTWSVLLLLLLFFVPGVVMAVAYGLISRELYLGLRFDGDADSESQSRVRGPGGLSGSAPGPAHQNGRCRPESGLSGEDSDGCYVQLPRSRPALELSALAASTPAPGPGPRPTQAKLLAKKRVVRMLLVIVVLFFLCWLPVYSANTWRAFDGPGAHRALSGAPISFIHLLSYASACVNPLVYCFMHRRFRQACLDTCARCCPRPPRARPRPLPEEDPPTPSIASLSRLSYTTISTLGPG
Experimental: Gastrin antagonist activity of compounds of Formula I is determined using the following assay.
A. Gastrin Receptor Binding in Guinea Pig Gastric Glands
Guinea pig gastric mucosal glands were prepared by the procedure of Chang et al., Science 230, 177-179 (1985) with slight modification. Gastric mucosa from guinea pigs (300-500 g body weight, male Hartley) were isolated by scraping with a glass slide after washing stomachs in ice-cold, aerated buffer consisting of the following: 130 mM NaCl, 12 mM NaHCO3, 3 mM NaH2 PO4, 3 mM Na2 HPO4, 3 mM K2 HPO4, 2 mM MgSO4, 1 mM CaCl2, 5 mM glucose and 4 mM L-glutamine, 50 mM HEPES, 0.25 mg/ml bacitracin, 0.10 mg/ml soya bean trypsin inhibitor, 0.1 mg/ml bovine serum albumin, at pH 6.5, and then incubated in a 37° C. shaking water bath for 40 minutes in buffer containing 1 mg/ml collagenase and bubbled with 95% O2 and 5% CO2. The tissues were passed twice through a 5 ml syringe to liberate the gastric glands, and then filtered through Nitex #202 gauge nylon mesh. The filtered glands were centrifuged at 272 g for 5 minutes and washed twice by resuspension in 25 ml buffer and centrifugation.
The washed guinea pig gastric glands prepared as above were resuspended in 25 ml of standard buffer. […] The radioactivity on the filters was measured using a LKB gamma counter.

CCK receptor (brain) = target: T3, CCK receptor (brain) (Cavia porcellus, UniProt H0VZC5); assay: CCK Receptor Binding (Brain), inhibition of 125I-CCK-8 binding; parameters: species or system Male Hartley guinea pigs
T3 construct: the cortex was removed and homogenized in 25 mL ice-cold 0.32M sucrose; from tissue; host or cells: guinea pig brain cortex P2 membranes (male Hartley)
T3 sequence (H0VZC5 1-426): T2 sequence (H0VZC5 1-426)
Experimental: CCK-8 sulphated was radiolabelled and the binding was performed according to the description for the pancreas method with minor modifications.
Male Hartley guinea pigs (300-500 g) were sacrificed by decapitation and the cortex was removed and homogenized in 25 mL ice-cold 0.32M sucrose. The homogenates were centrifuged at 1000 g for 10 minutes and the resulting supernatant was recentrifuged at 20,000 g for 20 minutes. […] All assays were run in duplicate. The reaction mixtures were incubated at 25° C. for 2 hours and then the reaction was terminated on Whatman GF/C filters by rapid filtration (Brandell 24 well cell Harvester) with 3×5 ml washes of cold 100 mM NaCl. The radioactivity on the filters was then counted with a LKB gamma counter.
as §1

gastrin = details: in words, in vitro; cited from earlier work
brain CCK (CCK-B) = details: in words; cited from earlier work
[2] = guinea pig cortex, 125I-CCK-8 50 pM, 25° C., 2 hours, read-out: CCK RECEPTOR BINDING RESULTS IC50, 125I-CCK Brain

Row | SMILES | CCK antagonist activity (CCK receptor) | IC50 (CCK receptor (brain); [2]) [µM] | further results
1 | CSCC[C@H](NC(=O)[C@H](Cc1ccc(OS(=O)(=O)O)cc1)NC(=O)OCc1ccccc1)C(=O)NCC(=O)N[C@@H](Cc1c[nH]c2ccccc12)C(=O)N[C@@H](CCSC)C(=O)N[C@@H](CC(=O)O)C(N)=O [Cbz-Tyr(SO3 H)-Met-Gly-Trp-Met-Asp-NH2] (Cbz-[sY]MGWMD-NH2) | can function as CCK antagonists; also recorded: partial agonist | – | –
2 | Cc1cccc(NC(=O)NC2N=C(c3ccccc3)c3ccccc3N(Cc3c[nH]cn3)C2=O)c1 (stereo not shown) [Example 1, N-{1,3-Dihydro-1-[1H-4-imidazolyl]methyl-2-oxo-5-phenyl-1H-1,4-benzodiazepin-3-yl}-N'-{[3-methylphenyl]-urea}] | – | 0.0079 | IC50 (CCK receptor (pancreas)): 0.011 µM; IC50 [1]: 0.0036 µM
3 | CSCC[C@H](N)C(=O)N[C@@H](CC(=O)O)C(=O)N[C@@H](Cc1ccccc1)C(N)=O [Met-Asp-Phe-NH2] (H-Met-Asp-Phe-NH2) | can function as CCK antagonists | – | –
4 | CCCC(=O)Nc1nc2c(ncn2[C@@H]2O[C@@H]3COP(=O)(O)O[C@H]3[C@H]2OC(=O)CCC)c(=O)[nH]1 [dibutyryl cyclic GMP] | most potent | – | –
5 | CCCN(CCC)C(=O)C(CCC(=O)O)NC(=O)c1ccccc1 (stereo not shown) [proglumide] | – | – | gastrin antagonist activity (gastrin): very weak in vitro antagonists
6 | Cc1cccc(NC(=O)NC2N=C(c3ccccc3)c3ccccc3N(Cc3n[nH]c(C)n3)C2=O)c1 (racemic) [Example 4, N-{1,3-Dihydro-1-[5-(2-methyl-1,3,4-triazolo)-methylene]-2-oxo-5-phenyl-1H-1,4-benzodiazepin-3-yl}-N'-{[3-methylphenyl]-urea}] | – | 0.01 | –
7 | Cc1cccc(NC(=O)NC2N=C(c3ccccc3)c3ccccc3N(Cc3ncc[nH]3)C2=O)c1 (stereo not shown) [Example 3, N-{1,3-Dihydro-1-[1H-2-imidazolyl]methyl-2-oxo-5-phenyl-1H-1,4-benzodiazepin-3-yl}-N'-{[3-methylphenyl]-urea}] | – | – | IC50 (CCK receptor (pancreas)): 0.258 µM; IC50 (CCK receptor (brain)): 0.0589 µM
8 | O=C(Nc1cccc(-c2nn[nH]n2)c1)N[C@@H]1N=C(c2ccccc2)c2ccccc2N(CC(=O)N2CCCC2)C1=O [Example 2, N-{3-(R)-1,3-Dihydro-1-(pyrrolidinylcarbonyl)methyl-2-oxo-5-phenyl-1H-1,4-benzodiazepin-3(R)-yl}-N'-{[3-(1H-tetrazol-5-yl)phenyl]urea}] | – | 0.00012 | –
9 | Cc1cccc(NC(=O)N[C@@H]2N=C(c3ccccc3)c3ccccc3N(C)C2=O)c1 [(R)-N-(2,3-dihydro-1-methyl-2-oxo-5-phenyl-1H-1,4-benzodiazepin-3-yl)-N^1-(3-methylphenyl) urea] | – | – | CCK-B receptor antagonism / selectivity (brain CCK (CCK-B)): potent and selective antagonist of CCK-B receptors
10 | CSCC[C@H](NC(=O)OC(C)(C)C)C(=O)N[C@@H](CC(=O)O)C(=O)N[C@@H](Cc1ccccc1)C(N)=O [Boc-Met-Asp-Phe-NH2] (Boc-Met-Asp-Phe-NH2) | can function as CCK antagonists | – | –
